Data as given in US20250109151A1, “SILYL-LIPID N-ACYL L-HOMOSERINE LACTONES AS QUORUM SENSING MOLECULES” (The Regents of the University of California, priority 2022, published 2025).

What was measured:
[1] = tested on: TNF-α release; conditions: LPS-induced model, at 30 min; cited from earlier work
[2] = cited from earlier work
[3] = molecular target: T1, LasR (Pseudomonas aeruginosa, UniProt P25084); assay: cell-based; conditions: for Emax: read-out: Maximum Activation (%); for designation of the sample in the LasR agonism table: words in brackets after the sample code
T1 construct: expressed in transfected cells; host or cells: E. coli (reporter strain)
Method: 15 compounds were assayed for LasR agonism using a beta-glo reporter assay in E. coli.

[4] = molecular target: T1, LasR; assay: LasR antagonism assay; type: cell-based; conditions: for Emax: read-out: Maximum Activation (%)
Method: 3 compounds were assayed for LasR antagonism.
The IC50, […], and Max Activation for each sample is reported below.

T1 sequence (P25084 whole entry): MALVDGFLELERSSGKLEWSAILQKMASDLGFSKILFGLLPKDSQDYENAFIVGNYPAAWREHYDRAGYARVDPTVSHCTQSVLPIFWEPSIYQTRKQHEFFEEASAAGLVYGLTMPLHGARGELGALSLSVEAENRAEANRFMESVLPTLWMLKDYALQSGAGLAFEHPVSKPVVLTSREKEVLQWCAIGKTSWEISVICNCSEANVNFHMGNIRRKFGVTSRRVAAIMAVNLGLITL

| SMILES | Emax [3] | further results |
| --- | --- | --- |
| Cc1ccc(-n2nc(C(C)(C)C)cc2NC(=O)Nc2ccc(OCCN3CCOCC3)c3ccccc23)cc1 [BIRB-796] |  | TNF-α suppression [1]: 41% |
| O=C(O)[C@@H]1CCCN1C(=O)OCC1c2ccccc2-c2ccccc21 [Fmoc-Pro] |  | Log P [2]: 0.094 |
| C[Si]1(C)CC(C(=O)O)N(C(=O)OCC2c3ccccc3-c3ccccc32)C1 (stereo not drawn) [Fmoc-Sip] |  | Log P [2]: 1.3 |
| CCCCCCCC[Si](C)(C)CCCCC(=O)N[C@H]1CCOC1=O [KMM 5-55-2, (S)-5-(dimethyl(octyl)silyl)-N-(2-oxotetrahydrofuran-3-yl)pentanamide] | 101% |  |
| CC[Si](CC)(CC)CCCCC(=O)N[C@H]1CCOC1=O [KMM 5-56-2, (S)-N-(2-oxotetrahydrofuran-3-yl)-5-(triethylsilyl)pentanamide] | 94.3% |  |
| C[Si](C)(CCCCC(=O)N[C@H]1CCOC1=O)c1ccccc1 [LSD 1-32, (S)-5-(dimethyl(phenyl)silyl)-N-(2-oxotetrahydrofuran-3-yl)pentanamide] | 96.1% |  |
| CCCC[Si](C)(C)CCCCC(=O)N[C@H]1CCOC1=O [LSD 1-34, (S)-5-(butyldimethylsilyl)-N-(2-oxotetrahydrofuran-3-yl)pentanamide] | 101% |  |
| CCCC[Si](C)(C)CCCCCCC(=O)N[C@H]1CCOC1=O [LSD 1-35, (S)-7-(butyldimethylsilyl)-N-(2-oxotetrahydrofuran-3-yl)heptanamide] | 90.4% |  |
| CCCCCCCC[Si](C)(C)CCCCCCC(=O)N[C@H]1CCOC1=O [LSD 1-59, (S)-7-(dimethyl(octyl)silyl)-N-(2-oxotetrahydrofuran-3-yl)heptanamide] | 25% | designation of the sample in the LasR agonism table [3]: LSD 1-59 (inactive) |
| C[Si](C)(CCCCCCC(=O)N[C@H]1CCOC1=O)c1ccccc1 [LSD 2-47, (S)-7-(dimethyl(phenyl)silyl)-N-(2-oxotetrahydrofuran-3-yl)heptanamide] | 99.7% |  |
| CCCC[Si](CCCC)(CCCC)CCCCC(=O)N[C@H]1CCOC1=O [LSD 2-65, (S)-N-(2-oxotetrahydrofuran-3-yl)-5-(tributylsilyl)pentanamide] | 79.8% |  |
| C[Si](C)(CCCCC(=O)CC(=O)N[C@H]1CCOC1=O)c1ccccc1 [LSD 2-113, (S)-7-(dimethyl(phenyl)silyl)-3-oxo-N-(2-oxotetrahydrofuran-3-yl)heptanamide] | 106% |  |
| C[Si](C)(C)O[Si](C)(C)CCCCC(=O)N[C@H]1CCOC1=O [LSD 2-120, (S)-N-(2-oxotetrahydrofuran-3-yl)-5-(1,1,3,3,3-pentamethyldisiloxaneyl)pentanamide] | 94% |  |
| C[Si](C)(c1ccccc1)c1ccc(CC(=O)N[C@H]2CCOC2=O)cc1 [LSD 133, (S)-2-(4-(dimethyl(phenyl)silyl)phenyl)-N-(2-oxotetrahydrofuran-3-yl)acetamide] | 9% | EC50 [3]: 0.015 µM; designation of the sample in the LasR agonism table [3]: LSD 133 (antagonist); IC50 [4]: 14.6 µM; Emax [4]: 97.2% |
| CCCC[Si](C)(C)c1ccc(CC(=O)N[C@H]2CCOC2=O)cc1 [LSD 137, (S)-2-(4-(butyldimethylsilyl)phenyl)-N-(2-oxotetrahydrofuran-3-yl)acetamide] | 14.1% | designation of the sample in the LasR agonism table [3]: LSD 137 (antagonist); IC50 [4]: 9.3 µM; Emax [4]: 101% |
| CC[Si](CC)(CC)CCCCC(=O)CC(=O)N[C@H]1CCOC1=O [LSD-92, (S)-3-oxo-N-(2-oxotetrahydrofuran-3-yl)-7-(triethylsilyl)heptanamide] | 86% |  |
